Values quoted from earlier work in patent US20210220286A1, “PHARMACEUTICAL COMPOSITION COMPRISING AMORPHOUS SUNITINIB” (SYNTHON B.V., priority 2018, published 2021).

Conditions: WO03016305, cited from earlier work; for stability of polymorphic form: ambient conditions

Structure (SMILES)	stability of polymorphic form	hygroscopicity of polymorphic form	solubility of polymorphic form (compared with form I)
CCN(CC)CCNC(=O)c1c(C)[nH]c(/C=C2\C(=O)Nc3ccc(F)cc32)c1C [Form I, sunitinib L-malate]	most stable form		
CCN(CC)CCNC(=O)c1c(C)[nH]c(/C=C2\C(=O)Nc3ccc(F)cc32)c1C [Form II, sunitinib L-malate]	less stable	hygroscopic	more soluble
